Experimental data from patent US20240366770A1, “DEGRADATION OF BRUTON'S TYROSINE KINASE (BTK) BY CONJUGATION OF BTK INHIBITORS WITH E3 LIGASE LIGAND AND METHODS OF USE” (BeiGene Switzerland GmbH, priority 2021, published 2024).
Where two headings read alike, the source gives them in different places.

Key:
[1] = biological target: T1, BTK (Homo sapiens, UniProt Q06187); assay: BTK degradation in TMD-8 cells (HTRF assay); type: cell-based; conditions: 6 h treatment, IC50 (DC50) of BTK degradation
T1 construct: High control=Cell group with added DMSO and without compound, indicating microplate readings without BTK degradation; endogenous in cells; host or cells: TMD-8
Method in brief: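 BTK remaining after compound treatment was measured by HTRF (337 nm excitation, 665/620 nm emission) in lysates of TMD-8 cells. Cells were exposed for 6 h to eight 6-fold-spaced concentrations in 0.2% DMSO. DC50 values were obtained from a Hill-equation fit (top, bottom, slope) of % inhibition.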

[2] = tested on: HEK-293 cells; assay: HEK-293 cytotoxicity detection (CellTiter-Glo); type: cell-based; conditions: HEK-293 cells, 72 h incubation, CellTiter-Glo luminescence, IC50 of cell proliferation inhibition, read-out: HEK293
Method in brief: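 Four-parameter logistic fitting of percent inhibition versus concentration gives IC50. Luminescent ATP read-out (CellTiter-Glo) after 72 h compound treatment of HEK-293 cells, 8 doses in 4-fold steps from a 5 mM 500× DMSO stock, final DMSO 0.2%.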

T1 sequence (Q06187 whole entry): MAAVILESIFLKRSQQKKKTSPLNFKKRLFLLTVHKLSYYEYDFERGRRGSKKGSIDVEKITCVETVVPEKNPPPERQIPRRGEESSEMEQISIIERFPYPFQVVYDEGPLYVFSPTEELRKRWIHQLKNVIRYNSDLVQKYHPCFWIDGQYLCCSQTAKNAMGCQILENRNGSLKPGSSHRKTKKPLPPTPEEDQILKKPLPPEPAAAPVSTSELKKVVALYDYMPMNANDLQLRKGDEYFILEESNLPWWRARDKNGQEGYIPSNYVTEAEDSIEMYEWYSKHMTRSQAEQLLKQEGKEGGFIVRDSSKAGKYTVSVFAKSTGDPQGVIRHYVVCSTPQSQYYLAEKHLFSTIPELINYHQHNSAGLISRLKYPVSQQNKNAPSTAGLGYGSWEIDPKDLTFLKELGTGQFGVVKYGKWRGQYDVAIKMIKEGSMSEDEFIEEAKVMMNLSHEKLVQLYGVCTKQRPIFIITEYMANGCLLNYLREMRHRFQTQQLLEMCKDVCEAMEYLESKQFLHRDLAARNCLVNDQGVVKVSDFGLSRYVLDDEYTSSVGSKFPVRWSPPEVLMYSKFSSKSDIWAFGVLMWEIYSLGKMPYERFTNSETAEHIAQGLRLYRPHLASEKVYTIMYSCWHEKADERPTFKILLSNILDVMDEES

Structure (SMILES)	DC50 [1] [nM]	IC50 ([2]; Homo sapiens) [nM]	IC50 [2] [nM]
COc1cc2c(cc1N1CCN(C3CC(c4ccc([C@@H]5CCC(=O)NC5=O)cc4)C3)CC1)[nH]c1ncnc(-c3ccc([C@@H](C)NC(=O)c4nc(C(C)(C)C)no4)c(C)c3F)c12 (stereo partly drawn) [Example 55, 3-(tert-butyl)-N—((R)-1-(4-(7-(4-(3-(4-((S)-2,6-dioxopiperidin-3-yl)phenyl)cyclobutyl)piperazin-1-yl)-6-methoxy-9H-pyrimido[4,5-b]indol-4-yl)-3-fluoro-2-methylphenyl)ethyl)-1,2,4-oxadiazole-5-carboxamide]	6.97	> 10000	
COc1cc2c(cc1N1CCN(C3CC(c4ccc([C@H]5CCC(=O)NC5=O)cc4)C3)CC1)[nH]c1ncnc(-c3ccc([C@@H](C)NC(=O)c4nc(C(C)(C)C)no4)c(C)c3F)c12 (stereo partly drawn) [Example 56, 3-(tert-butyl)-N—((R)-1-(4-(7-(4-(3-(4-((R)-2,6-dioxopiperidin-3-yl)phenyl)cyclobutyl)piperazin-1-yl)-6-methoxy-9H-pyrimido[4,5-b]indol-4-yl)-3-fluoro-2-methylphenyl)ethyl)-1,2,4-oxadiazole-5-carboxamide]	10.3	> 10000	
COc1cc2c(cc1N1CCN(C3CCN(c4cccc(C5CCC(=O)NC5=O)c4)C3)CC1)[nH]c1ncnc(-c3ccc([C@@H](C)NC(=O)c4nc(C(C)(C)C)no4)c(C)c3F)c12 (stereo partly drawn) [Example 57, 3-(tert-butyl)-N-((1R)-1-(4-(7-(4-(1-(3-(2,6-dioxopiperidin-3-yl)phenyl)pyrrolidin-3-yl)piperazin-1-yl)-6-methoxy-9H-pyrimido[4,5-b]indol-4-yl)-3-fluoro-2-methylphenyl)ethyl)-1,2,4-oxadiazole-5-carboxamide]	9.6	> 10000	
COc1cc2c(cc1N1CCN(C3CC(c4ccc([C@@H]5CCC(=O)NC5=O)cc4)C3)CC1)[nH]c1ncnc(-c3ccc([C@@H](C)NC(=O)c4noc(C(C)(C)C)n4)c(C)c3F)c12 (stereo partly drawn) [Example 59, 5-(tert-butyl)-N—((R)-1-(4-(7-(4-(3-(4-((S)-2,6-dioxopiperidin-3-yl)phenyl)cyclobutyl)piperazin-1-yl)-6-methoxy-9H-pyrimido[4,5-b]indol-4-yl)-3-fluoro-2-methylphenyl)ethyl)-1,2,4-oxadiazole-3-carboxamide]	4.55	> 10000	
COc1cc2c(cc1N1CCN(C3CC(c4ccc([C@H]5CCC(=O)NC5=O)cc4)C3)CC1)[nH]c1ncnc(-c3ccc([C@@H](C)NC(=O)c4noc(C(C)(C)C)n4)c(C)c3F)c12 (stereo partly drawn) [Example 60, 5-(tert-butyl)-N—((R)-1-(4-(7-(4-(3-(4-((R)-2,6-dioxopiperidin-3-yl)phenyl)cyclobutyl)piperazin-1-yl)-6-methoxy-9H-pyrimido[4,5-b]indol-4-yl)-3-fluoro-2-methylphenyl)ethyl)-1,2,4-oxadiazole-3-carboxamide]	4.97	> 10000	
COc1cc2c(cc1N1CCN(C3CCN(c4cccc(C5CCC(=O)NC5=O)c4)C3)CC1)[nH]c1ncnc(-c3ccc([C@@H](C)NC(=O)c4noc(C(C)(C)C)n4)c(C)c3F)c12 (stereo partly drawn) [Example 61, 5-(tert-butyl)-N-((1R)-1-(4-(7-(4-(1-(3-(2,6-dioxopiperidin-3-yl)phenyl)pyrrolidin-3-yl)piperazin-1-yl)-6-methoxy-9H-pyrimido[4,5-b]indol-4-yl)-3-fluoro-2-methylphenyl)ethyl)-1,2,4-oxadiazole-3-carboxamide]	5.52	> 10000	
Cc1c([C@@H](C)NC(=O)c2noc(C(C)(C)C)n2)ccc(-c2ncnc3[nH]c4cc(N5CCN(C6CN(c7ccc(N8CCC(=O)NC8=O)cc7)C6)CC5)ccc4c23)c1F [Example 63, (R)-5-(tert-butyl)-N-(1-(4-(7-(4-(1-(4-(2,4-dioxotetrahydropyrimidin-1(2H)-yl)phenyl)azetidin-3-yl)piperazin-1-yl)-9H-pyrimido[4,5-b]indol-4-yl)-3-fluoro-2-methylphenyl)ethyl)-1,2,4-oxadiazole-3-carboxamide]	6.82	> 10000	
Cc1c([C@@H](C)NC(=O)c2nc(C3(C)CC3)no2)ccc(-c2ncnc3[nH]c4cc(N5CCN(C6CC(c7ccc([C@@H]8CCC(=O)NC8=O)cc7)C6)CC5)ccc4c23)c1F (stereo partly drawn) [Example 65, N—((R)-1-(4-(7-(4-(3-(4-((S)-2,6-dioxopiperidin-3-yl)phenyl)cyclobutyl)piperazin-1-yl)-9H-pyrimido[4,5-b]indol-4-yl)-3-fluoro-2-methylphenyl)ethyl)-3-(1-methylcyclopropyl)-1,2,4-oxadiazole-5-carboxamide]	4.24	> 10000	
CC(C)(C)c1noc(C(=O)NCC2CCN(c3ncnc4[nH]c5cc(N6CCN(CC7CCN(c8ccc(N9CCC(=O)NC9=O)cc8)CC7)CC6)ccc5c34)CC2)n1 [Example 70, 3-(tert-butyl)-N-((1-(7-(4-((1-(4-(2,4-dioxotetrahydropyrimidin-1(2H)-yl)phenyl)piperidin-4-yl)methyl)piperazin-1-yl)-9H-pyrimido[4,5-b]indol-4-yl)piperidin-4-yl)methyl)-1,2,4-oxadiazole-5-carboxamide]	140	1990	

These reach a lower DC50 [1]. Values come first.

DC50 [1] [nM]	Structure (SMILES)	IC50 ([2]; Homo sapiens) [nM]	IC50 [2] [nM]
1.87	COc1cc2c(cc1N1CCN(CC3CCN(c4ccc(N5CCC(=O)NC5=O)cc4)CC3)CC1)[nH]c1ncnc(-c3ccc([C@@H](C)NC(=O)c4noc(C(C)(C)C)n4)c(C)c3F)c12 [Example 58, (R)-5-(tert-butyl)-N-(1-(4-(7-(4-((1-(4-(2,4-dioxotetrahydropyrimidin-1(2H)-yl)phenyl)piperidin-4-yl)methyl)piperazin-1-yl)-6-methoxy-9H-pyrimido[4,5-b]indol-4-yl)-3-fluoro-2-methylphenyl)ethyl)-1,2,4-oxadiazole-3-carboxamide]	> 10000	
0.414	COc1cc2c(cc1N1CCN(CC3CCN(c4ccc(N5CCC(=O)NC5=O)cc4)CC3)CC1)[nH]c1ncnc(-c3cc(C)c([C@@H](C)NC(=O)c4nc(C(C)(C)C)no4)cc3F)c12 [Example 62, (R)-3-(tert-butyl)-N-(1-(4-(7-(4-((1-(4-(2,4-dioxotetrahydropyrimidin-1(2H)-yl)phenyl)piperidin-4-yl)methyl)piperazin-1-yl)-6-methoxy-9H-pyrimido[4,5-b]indol-4-yl)-5-fluoro-2-methylphenyl)ethyl)-1,2,4-oxadiazole-5-carboxamide]	> 10000	
3.02	Cc1c([C@@H](C)NC(=O)c2nc(C3(C)CC3)no2)ccc(-c2ncnc3[nH]c4cc(N5CCN(CC6CCN(c7ccc(N8CCC(=O)NC8=O)cc7)CC6)CC5)ccc4c23)c1F [Example 64, (R)—N-(1-(4-(7-(4-((1-(4-(2,4-dioxotetrahydropyrimidin-1(2H)-yl)phenyl)piperidin-4-yl)methyl)piperazin-1-yl)-9H-pyrimido[4,5-b]indol-4-yl)-3-fluoro-2-methylphenyl)ethyl)-3-(1-methylcyclopropyl)-1,2,4-oxadiazole-5-carboxamide]	> 10000	
4.1	Cc1c([C@@H](C)NC(=O)c2nc(C3(C)CC3)no2)ccc(-c2ncnc3[nH]c4cc(N5CCN(C6CC(c7ccc([C@H]8CCC(=O)NC8=O)cc7)C6)CC5)ccc4c23)c1F (stereo partly drawn) [Example 66, N—((R)-1-(4-(7-(4-(3-(4-((R)-2,6-dioxopiperidin-3-yl)phenyl)cyclobutyl)piperazin-1-yl)-9H-pyrimido[4,5-b]indol-4-yl)-3-fluoro-2-methylphenyl)ethyl)-3-(1-methylcyclopropyl)-1,2,4-oxadiazole-5-carboxamide]	> 10000	
1.27	Cc1cc(-c2ncnc3[nH]c4cc(N5CCN(C6CC(c7ccc([C@@H]8CCC(=O)NC8=O)cc7)C6)CC5)ccc4c23)ccc1[C@@H](C)NC(=O)c1nc(C2(C)CC2)no1 (stereo partly drawn) [Example 67, N—((R)-1-(4-(7-(4-(3-(4-((S)-2,6-dioxopiperidin-3-yl)phenyl)cyclobutyl)piperazin-1-yl)-9H-pyrimido[4,5-b]indol-4-yl)-2-methylphenyl)ethyl)-3-(1-methylcyclopropyl)-1,2,4-oxadiazole-5-carboxamide]	> 10000	
1.6	Cc1cc(-c2ncnc3[nH]c4cc(N5CCN(C6CC(c7ccc([C@@H]8CCC(=O)NC8=O)cc7)C6)CC5)ccc4c23)ccc1[C@@H](C)NC(=O)c1nc(C2(C)CC2)no1 (stereo partly drawn) [Example 68, N—((R)-1-(4-(7-(4-(3-(4-((S)-2,6-dioxopiperidin-3-yl)phenyl)cyclobutyl)piperazin-1-yl)-9H-pyrimido[4,5-b]indol-4-yl)-2-methylphenyl)ethyl)-3-(1-methylcyclopropyl)-1,2,4-oxadiazole-5-carboxamide]		> 10000
0.266	COc1cc2c(cc1N1CCN(Cc3ccc4c(c3)n(C)c(=O)n4C3CCC(=O)NC3=O)CC1)[nH]c1ncnc(-c3ccc([C@@H](C)NC(=O)c4nc(C(C)(C)C)no4)c(C)c3)c12 (stereo partly drawn) [Example 69, 3-(tert-butyl)-N-((1R)-1-(4-(7-(4-((1-(2,6-dioxopiperidin-3-yl)-3-methyl-2-oxo-2,3-dihydro-1H-benzo[d]imidazol-5-yl)methyl)piperazin-1-yl)-6-methoxy-9H-pyrimido[4,5-b]indol-4-yl)-2-methylphenyl)ethyl)-1,2,4-oxadiazole-5-carboxamide]	> 10000	
